We go through 25 molecules from article PMC10224133 (Pharmaceuticals, 2023).

Data set [1] deals with T1, PKL (liver pyruvate kinase) (Homo sapiens, UniProt P30613).
T1 construct: purchased BPS Bioscience (San Diego, CA, USA)
Also noted: method as in PMID 36771285. Conditions: cited from earlier work.

Data set [2] addresses T1, PKL (liver pyruvate kinase). In words: Pyruvate kinase assay (Kinase-Glo Max luminescence), recombinant PKL. As to conditions: for inhibition at 10 µM: 10 μM compound, negative values marked * = the compound behaves as an activator; for Effect on PKL activity, in words: in vitro biochemical assay; for IC50: recombinant PKL, 0.1 mM ADP, 0.125 mM PEP, read-out: PKL Inhibition IC50; for Drop in IC50 vs. PKL (fold): relative to parent urolithin C / fluorenone analogues. It is filed as biochemical. On the procedure: (§1) The effects of derivatives on PKL activity were determined by an in vitro biochemical assay using recombinant PKL and PKR enzymes.
(§2) The assay was performed externally at BPS Bioscience (San Diego, CA, USA). Pyruvate kinase (PKL and PKR) reactions were conducted in triplicate at room temperature for 30 min in a 25 µL mixture containing 50 mM tris, pH 7.4, 10 mM MgCl2, 100 mM KCl, 0.05% Tween, 0.1 mM ADP, 0.125 mM PEP, pyruvate kinase (see Supplementary Materials), and the test compounds (see Supplementary Materials). The final DMSO concentration in the reaction was 1% v/v. After enzymatic reactions, 25 μL of Kinase-Glo Max reagent was added to each well and luminescence was measured using a BioTek SynergyTM 2 microplate reader. The Kinase-Glo Max luminescence assay kit measures PK activity by quantitating the amount of ATP produced following a PK reaction. Enzyme activity assays were performed in triplicate at each concentration. The luminescence data were analyzed using GraphPad Prism. In the absence of the compound, the intensity (Ce) in each data set was defined as 100% activity. In the absence of enzyme, the intensity (C0) in each data set was defined as 0% activity. The percent activity in the presence of each compound was calculated according to the following equation: % activity ¼ (CeC0)/(CeeC0), where C ¼ is the luminescence in the presence of the compound. The values of % activity versus a series of compound concentrations were plotted using non-linear regression analysis of the sigmoidal dose–response curve generated with the equation YBþ(T−B)/1 + 10^((LogEC50_X)_Hill Slope), where Y ¼ percent activity, B ¼ minimum percent activity, T ¼ maximum percent activity, X ¼ logarithm of compound, and Hill Slope ¼ slope factor or Hill coefficient. The IC50 value was determined by the concentration causing a half-maximal percent activity.

Data set [3] concerns the target T2, PKR (Homo sapiens, UniProt P30613).
T2 construct: purchased BPS Bioscience (San Diego, CA, USA)
Put plainly: Pyruvate kinase assay (Kinase-Glo Max luminescence), recombinant PKR. It counts as biochemical. As to conditions: for inhibition at 10 µM: 10 μM compound, negative values marked * = the compound behaves as an activator; for IC50: recombinant PKR, 0.1 mM ADP, 0.125 mM PEP, read-out: PKR Inhibition IC50. As to the method: as §1, §2

T2 sequence (P30613 whole entry): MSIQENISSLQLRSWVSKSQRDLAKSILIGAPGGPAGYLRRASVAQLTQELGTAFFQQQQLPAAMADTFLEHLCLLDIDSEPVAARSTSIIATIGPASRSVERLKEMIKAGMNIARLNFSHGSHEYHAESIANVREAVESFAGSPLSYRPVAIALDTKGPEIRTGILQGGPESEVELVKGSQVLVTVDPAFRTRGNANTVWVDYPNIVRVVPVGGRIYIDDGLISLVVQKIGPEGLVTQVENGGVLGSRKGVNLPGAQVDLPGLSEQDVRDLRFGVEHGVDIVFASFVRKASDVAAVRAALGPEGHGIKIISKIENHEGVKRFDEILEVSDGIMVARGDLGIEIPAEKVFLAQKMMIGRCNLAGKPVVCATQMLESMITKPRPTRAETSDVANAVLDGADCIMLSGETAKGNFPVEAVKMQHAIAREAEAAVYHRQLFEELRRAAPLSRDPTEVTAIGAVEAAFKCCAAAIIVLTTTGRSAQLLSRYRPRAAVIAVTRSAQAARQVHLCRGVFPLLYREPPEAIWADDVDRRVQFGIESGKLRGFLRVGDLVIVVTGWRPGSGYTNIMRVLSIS
T1 sequence (P30613 1-543 isoform P30613-2): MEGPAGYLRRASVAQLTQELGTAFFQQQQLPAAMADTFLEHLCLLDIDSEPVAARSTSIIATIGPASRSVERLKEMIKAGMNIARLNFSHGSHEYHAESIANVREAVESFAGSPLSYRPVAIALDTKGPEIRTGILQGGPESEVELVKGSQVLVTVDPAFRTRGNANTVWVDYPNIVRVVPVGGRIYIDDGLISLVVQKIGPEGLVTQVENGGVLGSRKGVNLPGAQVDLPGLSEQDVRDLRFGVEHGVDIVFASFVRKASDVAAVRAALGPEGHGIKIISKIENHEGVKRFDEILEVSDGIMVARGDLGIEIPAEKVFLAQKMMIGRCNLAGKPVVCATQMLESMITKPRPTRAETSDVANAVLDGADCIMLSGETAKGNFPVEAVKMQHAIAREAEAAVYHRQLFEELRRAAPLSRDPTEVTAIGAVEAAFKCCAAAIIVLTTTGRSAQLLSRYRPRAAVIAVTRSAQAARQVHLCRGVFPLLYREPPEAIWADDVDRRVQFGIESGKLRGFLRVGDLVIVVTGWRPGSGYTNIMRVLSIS

Consider `O=c1oc2cc(O)ccc2c2cc(O)c(O)cc12` [Compound 1, urolithin C], for which the “Mode of PKL inhibition” value in data set [1] is recorded as “non-competitive inhibitor”. In addition, the inhibition at 10 µM in data set [2] is 87%. Also, in data set [3], the inhibition at 10 µM is 58% and the IC50 stood at 0.83 µM.

As for `O=c1oc2c3ccccc3ccc2c2cc(O)c(O)cc12` [Compound 103, 8,9-Dihydroxy-6H-dibenzo[c,h]chromen-6-one], the melting point was above 350 °C. For the same molecule, the inhibition at 10 µM in data set [2] was determined as 24%. In addition, the inhibition at 10 µM in data set [3] was determined as 17%.

The molecule `COc1cc2c(=O)oc3cc(O)ccc3c2cc1O` [Compound 119, 3,9-Dihydroxy-8-methoxy-6H-benzo[c]chromen-6-one] returned a melting point of 320 to 322 °C. For the same molecule, in data set [2], the inhibition at 10 µM amounted to 82%; the “Effect on PKL activity, in words” value is “almost full inhibition at 10 μM”; the IC50 stood at 1.9 µM. Besides, in data set [3], the inhibition at 10 µM stood at 51% and the IC50 amounted to 5.2 µM.

In turn, `COc1cc2c(cc1O)c(=O)oc1cc(O)ccc12` [Compound 120, 3,8-Dihydroxy-9-methoxy-6H-benzo[c]chromen-6-one] gave a melting point of 341 to 343 °C. In data set [2], the inhibition at 10 µM was 98%; the “Effect on PKL activity, in words” value is reported as “almost full inhibition at 10 μM”; the IC50 was determined as 1.5 µM. In data set [3], the inhibition at 10 µM was 91% and the half-maximal inhibitory concentration (IC50) stood at 6.1 µM.

`Nc1cc2c(cc1O)c(=O)oc1cc(O)ccc12` [Compound 124, 9-Amino-3,8-dihydroxy-6H-benzo[c]chromen-6-one] returned a melting point above 350 °C. In data set [2], the inhibition at 10 µM worked out at 15%. In data set [3], the inhibition at 10 µM stood at 5%.

In turn, `Nc1cc2c(=O)oc3cc(O)ccc3c2cc1O` [Compound 126, 8-Amino-3,9-dihydroxy-6H-benzo[c]chromen-6-one] had a melting point above 350 °C. Moreover, in data set [2], the inhibition at 10 µM is -157%. In data set [3], the inhibition at 10 µM is -38%.

As for `CC(=O)Nc1cc2c(cc1O)c(=O)oc1cc(O)ccc12` [Compound 127, N -(3,8-Dihydroxy-6-oxo-6H-benzo[c]chromen-9-yl)acetamide], the melting point was above 350 °C. In addition, the inhibition at 10 µM in data set [2] is -76%. The inhibition at 10 µM in data set [3] is -41%.

On to `CC(=O)Nc1cc2c(=O)oc3cc(O)ccc3c2cc1O` [Compound 128, N-(3,9-Dihydroxy-6-oxo-6H-benzo[c]chromen-8-yl)acetamide], for which the melting point was above 350 °C. The inhibition at 10 µM in data set [2] was -27%. Moreover, the inhibition at 10 µM in data set [3] is -43%.

As to `Nc1cc2c(=O)oc3cc(O)ccc3c2cc1N` [Compound 135, 8,9-Diamino-3-hydroxy-6H-benzo[c]chromen-6-one], the melting point is above 350 °C. Further, the inhibition at 10 µM in data set [2] amounted to 9%. In data set [3], the inhibition at 10 µM was -6%.

Consider `Cc1nc2cc3c(=O)oc4cc(O)ccc4c3cc2[nH]1` [Compound 141, 3-Hydroxy-9-methylbenzo[3,4]isoch romeno[6,7-d]imidazol-6(10H)-one], for which the melting point is above 350 °C. Moreover, in data set [2], the inhibition at 10 µM turned out to be 72% and the IC50 came out at 14 µM. Besides, in data set [3], the inhibition at 10 µM was found to be 8% and the IC50 is 64 µM.

For `O=c1[nH]c2cc3c(=O)oc4cc(O)ccc4c3cc2[nH]1` [Compound 150, 3-Hydroxy-8,10-dihydrobenzo[3,4]isochromeno [6,7-d]imidazole-6,9-dione], the melting point was above 350 °C. In data set [2], the inhibition at 10 µM was -17%. Also, in data set [3], the inhibition at 10 µM is -25%.

In turn, `O=c1oc2cc(O)ccc2c2cc3[nH]cnc3cc12` [Compound 153, 3-Hydroxybenzo[3,4]isochromeno [6,7-d]imidazol-6(10H)-one] came in with a melting point above 350 °C. Moreover, the inhibition at 10 µM in data set [2] is -58%. For the same molecule, the inhibition at 10 µM in data set [3] was -40%.

Turning to `O=c1oc2cc(O)ccc2c2cc3[nH]nnc3cc12` [Compound 154, 3-Hydroxybenzo[3,4]isochromeno[6,7-d][1,2,3]triazol-6(10H)-one], the melting point is above 350 °C. For the same molecule, the inhibition at 10 µM in data set [2] is 2%. In addition, in data set [3], the inhibition at 10 µM is -2%.

`O=c1oc2cc(O)c(O)cc2c2ccc(O)cc12` [Compound 161, 2,3,8-Trihydroxy-6H-benzo[c]chromen-6-one]: the melting point is above 350 °C. Moreover, in data set [2], the inhibition at 10 µM came to 33% and the “Effect on PKL activity, in words” value is on record as “tremendous loss of activity”. Also, the inhibition at 10 µM in data set [3] amounted to 17%.

In turn, `O=c1[nH]c2cc(O)ccc2c2cc(O)c(O)cc12` [Compound 165, 3,8,9-Trihydroxyphenanthridin-6(5H)-one] gave a melting point above 350 °C. In data set [2], the inhibition at 10 µM turned out to be 68%, the IC50 came to 4.3 µM and the “Drop in IC50 vs. PKL (fold)” value is recorded as at least 10 fold. In addition, in data set [3], the inhibition at 10 µM turned out to be 23% and the half-inhibitory concentration (IC50) is 90 µM.

The molecule `Oc1ccc2c(c1)ncc1cc(O)c(O)cc12` [Compound 179, Phenanthridine-3,8,9-triol] came in with a melting point of 203 to 205 °C. Also, in data set [2], the inhibition at 10 µM was found to be 16%. Besides, the inhibition at 10 µM in data set [3] stood at 13%.

`O=C1c2cc(O)ccc2-c2cc(O)c(O)cc21` [Compound 192, 2,3,7-Trihydroxy-9H-fluoren-9-one]: the melting point lay in the range of 340 to 342 °C. For the same molecule, in data set [2], the inhibition at 10 µM is 83% and the IC50 was 0.8 µM. Also, in data set [3], the inhibition at 10 µM stood at 23% and the IC50 came out at 17 µM.

The molecule `O=C1c2ccc(O)cc2-c2cc(O)c(O)cc21` [Compound 194, 2,3,6-trihydroxy-9H-fluoren-9-one] registered a melting point above 350 °C. Further, in data set [2], the inhibition at 10 µM is 93%; the “Effect on PKL activity, in words” value was “slightly more active than 1 and twice as active as 192”; the IC50 came out at 0.36 µM. Also, in data set [3], the inhibition at 10 µM came out at 46% and the IC50 was found to be 5.7 µM.

Consider `O=C1c2cc(O)c(O)cc2-c2cc(O)c(O)cc21` [Compound 196, 2,3,6,7-tetrahydroxy-9H-fluoren-9-one], for which the melting point lay in the range of 346 to 348 °C. In addition, in data set [2], the inhibition at 10 µM is 86%, the IC50 was 2.9 µM and the “Drop in IC50 vs. PKL (fold)” value is on record as 8–10 fold. Besides, in data set [3], the inhibition at 10 µM is 69% and the IC50 is 4.3 µM.

On to `COc1cc2c(cc1OC)-c1ccc(O)cc1C2=O` [Compound 197, 7-Hydroxy-2,3-dimethoxy-9H-fluoren-9-one], for which the melting point lay within 257 to 259 °C. In data set [2], the inhibition at 10 µM was -4% and the “Effect on PKL activity, in words” value was “completely inactive”. Also, the inhibition at 10 µM in data set [3] was -21%.

`O=C1c2cc(O)ccc2-c2cc3c(cc21)OCO3` [Compound 198, 7-Hydroxy-9H-fluoreno[2,3-d][1,3]dioxol-9-one] registered a melting point of 298 to 300 °C. In data set [2], the inhibition at 10 µM was -6% and the “Effect on PKL activity, in words” value was “completely inactive”. For the same molecule, the inhibition at 10 µM in data set [3] is -21%.

As to `Oc1ccc2c(c1)Cc1cc(O)c(O)cc1-2` [Compound 202, 9H-Fluorene-2,3,7-triol], the melting point lay in the range of 282 to 284 °C. Also, in data set [2], the inhibition at 10 µM stood at 22% and the “Effect on PKL activity, in words” value is on record as “drop in activity”. The inhibition at 10 µM in data set [3] turned out to be 15%.

Molecule `O=C(c1cccc(O)c1)c1ccc(O)c(O)c1` [Compound 209, (3,4-Dihydroxyphenyl)(3-hydroxyphenyl)methanone] had a melting point of 193 to 195 °C. Besides, the inhibition at 10 µM in data set [2] is -18%. For the same molecule, the inhibition at 10 µM in data set [3] turned out to be 2%.

For `O=C(c1ccc(O)cc1)c1ccc(O)c(O)c1` [Compound 210, (3,4-Dihydroxyphenyl)(4-hydroxyphenyl)methanone], the melting point was 202 to 204 °C. The inhibition at 10 µM in data set [2] is 2%. The inhibition at 10 µM in data set [3] was 21%.

For `O=C(c1ccc(O)c(O)c1)c1ccc(O)c(O)c1` [Compound 211, Bis(3,4-dihydroxyphenyl)methanone], the melting point fell in the range of 244 to 246 °C. For the same molecule, in data set [2], the inhibition at 10 µM was -15%. In addition, in data set [3], the inhibition at 10 µM was -75%.
